Values of other authors as cited in US20050142194A1, “Composition comprising CS” (ALTERGON S.A., priority 2003, published 2005).

Key:
[1] = tested on: pepsin; conditions: prior art statement, middle of the twentieth century
[2] = general statement of the prior art part

solubility in water [2]	Substance	action on the proteolytic activity of pepsin [1]
poorly soluble in water	chondroitin sulfate	clear inhibitory action
poorly soluble in water	sodium chondroitin sulfate	–
